This is an account of results in article PMC6331912, “7-Methoxytacrine-p-Anisidine Hybrids as Novel Dual Binding Site Acetylcholinesterase Inhibitors for Alzheimer’s Disease Treatment” (Molecules, 2015).

For orientation: IC50 means the point on the concentration scale where inhibition reaches its midpoint. Usually Ki stands for the equilibrium dissociation constant of an inhibitor or competing ligand from its target.

Common to all, as to format: biochemical
Assay [1] deals with T1, human recombinant acetylcholinesterase (hAChE) (Homo sapiens, UniProt P22303).
T1 construct: purchased Sigma-Aldrich (Prague, Czech Republic)
Briefly: biochemical. To be noted: for IC50: mean of at least three experiments, substrate ATCh, pH 7.4, 37 °C, read-out: hAChE IC50 ± SEM; for Selectivity for hAChE: ratio hBChE IC50/hAChE IC50; for fold weaker inhibitor of hAChE compared to tacrine: ratio of IC50 to tacrine.

The target of assay [2] is human plasma butyrylcholinesterase (hBChE) (Homo sapiens, UniProt P06276). Briefly: biochemical. As to conditions: for IC50: mean of at least three experiments, substrate BTCh, pH 7.4, 37 °C, read-out: hBChE IC50 ± SEM; for fold weaker inhibitor of hBChE related to tacrine: ratio of IC50 to tacrine.
Another assay deals with T2, AChE (Homo sapiens, UniProt P22303).
T2 construct: purchased Sigma-Aldrich (Prague, Czech Republic)
Briefly: Kinetic study of AChE inhibition (Ellman's method, nonlinear regression, Lineweaver-Burk). As to conditions: for Ki: estimated by nonlinear regression analysis, substrate ATCh; for type of inhibition: p < 0.05, apparent Vmax decreased, Km unchanged with increasing inhibitor concentration. As for the experimental part: […]. We used a kinetic assay in order to obtain information about the mode of inhibition and binding site of the target compounds. The mechanism of inhibition was analyzed by recording substrate concentration—enzymatic reaction rate curves in the presence of different concentrations of compounds 15 and 19. Analysis confirmed a non-competitive type of inhibition (p < 0.05) for both compounds. With increasing concentration of inhibitor, apparent Vmax decreased and Km remained unchanged. […] […]. Such a pattern of inhibition is also characteristic for donepezil and it may indicate prevailing interactions of the enzyme with PAS [36]. PAS of AChE is associated with the ability to induce Aβ aggregation, thus, compounds interacting with this region may inhibit such a process and could have additional benefit for the treatment of AD [37].
Figure 3 Steady-state inhibition of AChE hydrolysis of acetylthiocholine (ATCh) by compounds 15 and 19. […]. Lines were derived from a weighted least-squares analysis of data.
The kinetic study of AChE inhibition was performed by using Ellman’s method (described above). The type of inhibition was elucidated from the nonlinear regression analysis. Results for each type model of inhibition (competitive, noncompetitive, uncompetitive and mixed) were compared with sum-of-squares F-test. […]. Linear regression was used for calculation of Lineweaver-Burk plots. All calculations were performed using the GraphPad Prism software.

Chain of human plasma butyrylcholinesterase (hBChE) (P06276 29-602): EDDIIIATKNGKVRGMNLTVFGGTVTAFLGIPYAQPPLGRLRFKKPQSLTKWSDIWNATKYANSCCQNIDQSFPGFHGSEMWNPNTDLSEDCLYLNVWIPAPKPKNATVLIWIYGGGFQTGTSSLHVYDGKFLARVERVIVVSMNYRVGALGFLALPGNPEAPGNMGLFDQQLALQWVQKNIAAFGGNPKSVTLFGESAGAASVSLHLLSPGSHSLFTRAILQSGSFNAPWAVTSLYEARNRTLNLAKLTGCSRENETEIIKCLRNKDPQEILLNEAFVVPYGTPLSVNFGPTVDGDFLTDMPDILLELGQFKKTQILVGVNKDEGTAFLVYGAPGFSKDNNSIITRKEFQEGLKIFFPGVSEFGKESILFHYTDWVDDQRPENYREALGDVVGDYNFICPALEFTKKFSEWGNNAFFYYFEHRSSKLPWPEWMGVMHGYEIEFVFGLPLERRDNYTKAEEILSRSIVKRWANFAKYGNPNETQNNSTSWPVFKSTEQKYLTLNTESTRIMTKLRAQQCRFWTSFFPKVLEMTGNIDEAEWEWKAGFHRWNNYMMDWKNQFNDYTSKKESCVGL
T1 sequence (P22303 32-614): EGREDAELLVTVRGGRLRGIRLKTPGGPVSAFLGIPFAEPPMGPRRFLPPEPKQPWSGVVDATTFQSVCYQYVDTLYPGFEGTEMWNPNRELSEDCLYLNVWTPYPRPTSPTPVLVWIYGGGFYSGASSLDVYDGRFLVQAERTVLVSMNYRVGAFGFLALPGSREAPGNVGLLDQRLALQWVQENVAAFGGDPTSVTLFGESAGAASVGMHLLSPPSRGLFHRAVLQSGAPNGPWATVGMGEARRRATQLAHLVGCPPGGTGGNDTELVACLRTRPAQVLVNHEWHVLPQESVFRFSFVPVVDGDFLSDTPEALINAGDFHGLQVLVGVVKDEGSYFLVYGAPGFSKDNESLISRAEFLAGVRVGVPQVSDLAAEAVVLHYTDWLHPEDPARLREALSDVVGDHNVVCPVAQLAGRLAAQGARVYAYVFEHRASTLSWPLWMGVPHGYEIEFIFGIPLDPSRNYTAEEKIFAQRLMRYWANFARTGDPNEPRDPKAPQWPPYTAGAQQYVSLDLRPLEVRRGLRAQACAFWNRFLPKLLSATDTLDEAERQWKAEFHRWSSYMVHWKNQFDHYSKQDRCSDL
T2 sequence (P22303 32-614): as above

For the compound `COc1ccc(NC(=S)NCCCCCNc2c3c(nc4ccc(OC)cc24)CCCC3)cc1.O=C(O)C(O)C(O)C(=O)O` [compound 12, 3-{5-[(7-Methoxy-1,2,3,4-tetrahydroacridin-9-yl)amino]pentyl}-1-(4-methoxyphenyl)thiourea-2,3‑dihydroxy-succinate], the IC50 is 4.9 ± 0.3 µM in assay [1] and 13.5 ± 0.7 µM in assay [2]. In assay [1], the “Selectivity for hAChE” value amounted to 2.71.
With `COc1ccc(NC(=S)NCCCCCCNc2c3c(nc4ccc(OC)cc24)CCCC3)cc1.O=C(O)C(O)C(O)C(=O)O` [compound 13, 3-{6-[(7-Methoxy-1,2,3,4-tetrahydroacridin-9-yl)amino]hexyl}-1-(4-methoxyphenyl)thiourea-2,3‑dihydroxy-succinate], in assay [1], the IC50 was 10.3 ± 1.3 µM and the “Selectivity for hAChE” value is reported as 0.90. In addition, in assay [2], the IC50 came out at 9.35 ± 0.1 µM.
Turning to `COc1ccc(NC(=O)NCCCCCNc2c3c(nc4ccc(OC)cc24)CCCC3)cc1.O=C(O)C(O)C(O)C(=O)O` [compound 19, 3-{5-[(7-Methoxy-1,2,3,4-tetrahydroacridin-9-yl)amino]pentyl}-1-(4-methoxyphenyl)urea-2,3‑dihydroxy-succinate], in assay [1], the IC50 came to 1.35 ± 0.3 µM, the “Selectivity for hAChE” value is 8.07 and the “fold weaker inhibitor of hAChE compared to tacrine” value came to 4.2 fold. The IC50 in assay [2] is 10.9 ± 1.6 µM. Moreover, on AChE, the Ki is 0.453 ± 0.0251 µM and the type of inhibition result is reported as “non-competitive”.
Regarding `COc1ccc(NC(=O)NCCNc2c3c(nc4ccc(OC)cc24)CCCC3)cc1.O=C(O)C(O)C(O)C(=O)O` [compound 16, 3-{2-[(7-Methoxy-1,2,3,4-tetrahydroacridin-9-yl)amino]ethyl}-1-(4-methoxyphenyl)urea-2,3‑dihydroxy-succinate], in assay [1], the IC50 was determined as 44.9 ± 1.4 µM and the “Selectivity for hAChE” value amounted to 0.27. For the same compound, the IC50 in assay [2] was found to be 11.9 ± 2.3 µM.
For `COc1ccc(NC(=S)NCCNc2c3c(nc4ccc(OC)cc24)CCCC3)cc1.O=C(O)C(O)C(O)C(=O)O` [compound 9, 3-{2-[(7-Methoxy-1,2,3,4-tetrahydroacridin-9-yl)amino]ethyl}-1-(4-methoxyphenyl)thiourea-2,3‑dihydroxy-succinate], in assay [1], the IC50 worked out at 43.6 ± 2.1 µM and the “Selectivity for hAChE” value was determined as 0.02. In addition, in assay [2], the IC50 came out at 1.03 ± 0.1 µM and the “fold weaker inhibitor of hBChE related to tacrine” value is reported as 12.9 fold.
For `COc1ccc(NC(=O)NCCCCCCCCNc2c3c(nc4ccc(OC)cc24)CCCC3)cc1.O=C(O)C(O)C(O)C(=O)O` [compound 22, 3-{8-[(7-Methoxy-1,2,3,4-tetrahydroacridin-9-yl)amino]octyl}-1-(4-methoxyphenyl)urea-2,3‑dihydroxy-succinate], in that order: 2.14 ± 0.6 µM, 0.63, 1.34 ± 0.2 µM and 16.8 fold.
`COc1ccc(NC(=O)NCCCCCCCNc2c3c(nc4ccc(OC)cc24)CCCC3)cc1.O=C(O)C(O)C(O)C(=O)O` [compound 21, 3-{7-[(7-Methoxy-1,2,3,4-tetrahydroacridin-9-yl)amino]heptyl}-1-(4-methoxyphenyl)urea-2,3‑dihydroxy-succinate]: in assay [1], the IC50 came out at 1.72 ± 0.3 µM and the “Selectivity for hAChE” value is listed as 0.98. Besides, the IC50 in assay [2] worked out at 1.69 ± 0.2 µM.
In the same order, the values of `COc1ccc(NC(=O)NCCCCCCNc2c3c(nc4ccc(OC)cc24)CCCC3)cc1.O=C(O)C(O)C(O)C(=O)O` [compound 20, 3-{6-[(7-Methoxy-1,2,3,4-tetrahydroacridin-9-yl)amino]hexyl}-1-(4-methoxyphenyl)urea-2,3‑dihydroxy-succinate] are 4.56 ± 0.9 µM, 1.26 and 5.75 ± 0.4 µM.
In the same order, the values of `COc1ccc(NC(=S)NCCCNc2c3c(nc4ccc(OC)cc24)CCCC3)cc1.O=C(O)C(O)C(O)C(=O)O` [compound 10, 3-{3-[(7-Methoxy-1,2,3,4-tetrahydroacridin-9-yl)amino]propyl}-1-(4-methoxyphenyl)thiourea-2,3‑dihydroxy-succinate] are 6.36 ± 0.5 µM, 1.37 and 8.73 ± 0.1 µM.
Consider `COc1ccc(NC(=S)NCCCCCCCCNc2c3c(nc4ccc(OC)cc24)CCCC3)cc1.O=C(O)C(O)C(O)C(=O)O` [compound 15, 3-{8-[(7-Methoxy-1,2,3,4-tetrahydroacridin-9-yl)amino]octyl}-1-(4-methoxyphenyl)thiourea-2,3‑dihydroxy-succinate], for which, in assay [1], the IC50 is 1.36 ± 0.4 µM, the “Selectivity for hAChE” value came out at 7.53 and the “fold weaker inhibitor of hAChE compared to tacrine” value came out at 4.2 fold. The IC50 in assay [2] came to 10.2 ± 4.7 µM. Besides, on AChE, the inhibitory constant (Ki) is 1.33 ± 0.125 µM and the type of inhibition entry was “non-competitive”.
Turning to `COc1ccc(NC(=O)NCCCNc2c3c(nc4ccc(OC)cc24)CCCC3)cc1.O=C(O)C(O)C(O)C(=O)O` [compound 17, 3-{3-[(7-Methoxy-1,2,3,4-tetrahydroacridin-9-yl)amino]propyl}-1-(4-methoxyphenyl)urea-2,3‑dihydroxy-succinate], in assay [1], the IC50 came to 26.9 ± 5.9 µM and the “Selectivity for hAChE” value was 0.59. In addition, in assay [2], the IC50 is 15.9 ± 4.1 µM.
Turning to `COc1ccc(NC(=S)NCCCCCCCNc2c3c(nc4ccc(OC)cc24)CCCC3)cc1.O=C(O)C(O)C(O)C(=O)O` [compound 14, 3-{7-[(7-Methoxy-1,2,3,4-tetrahydroacridin-9-yl)amino]heptyl}-1-(4-methoxyphenyl)thiourea-2,3‑dihydroxy-succinate], the IC50 in assay [1] was found to be 3.96 ± 0.1 µM; in assay [2], 3.13 ± 0.3 µM. For the same compound, the “Selectivity for hAChE” value in assay [1] is 0.79.
In the same order, the values of `COc1ccc(NC(=O)NCCCCNc2c3c(nc4ccc(OC)cc24)CCCC3)cc1.O=C(O)C(O)C(O)C(=O)O` [compound 18, 3-{4-[(7-Methoxy-1,2,3,4-tetrahydroacridin-9-yl)amino]butyl}-1-(4-methoxyphenyl)urea-2,3‑dihydroxy-succinate] are 13.8 ± 3.9 µM, 9.34 ± 0.1 µM and 0.68.
Consider `COc1ccc(NC(=S)NCCCCNc2c3c(nc4ccc(OC)cc24)CCCC3)cc1.O=C(O)C(O)C(O)C(=O)O` [compound 11, 3-{4-[(7-Methoxy-1,2,3,4-tetrahydroacridin-9-yl)amino]butyl}-1-(4-methoxyphenyl)thiourea-2,3‑dihydroxy-succinate], for which the results for the IC50 in assay [1] and in assay [2] were 32.8 ± 9.9 µM and 6.04 ± 0.1 µM, respectively. In addition, in assay [1], the “Selectivity for hAChE” value amounted to 0.18.
